Source: US10857247B2, “Compounds and compositions for the detection and treatment of Alzheimer's disease and related disorders” (The General Hospital Corporation, priority 2008, dated 2020)
Like-named read-outs stand apart in the source and are kept apart here.

How the values were obtained:
[1] = cited from earlier work
[2] = Biodistribution of [18F]fluoro-RS 86 in rats; format: in vivo
Experimental: As described above, 2-(2-methanesulfonylethyl)-8-methyl-2,8-diazaspiro[4,5]decane-1,3-dione was prepared in five steps. The RS-86 mesylate (2 mg) in acetonitrile (0.1 mL) was added to a sealed vial containing dried K^18F/kryptofix and heated at 120° C. for 10 min. The mixture was diluted with water (0.2 mL) and purified by HPLC (C-18 column 250×10 mm, flow 6 mL/min, PBS/acetonitrile (95:5). The fraction containing [^18F]fluoro-RS 86 was evaporated to dryness and the activity dissolved in PBS before filtering. Biodistribution was performed in rats at 5, 30 and 60 min.

[3] = normal mice, iv, cited from earlier work
brain amyloid deposits = conditions: APP23 transgenic mice, 180 min after iv injection; cited from earlier work

## CCN1C(=O)CC2(CCN([11CH3])CC2)C1=O [[^11C]RS-86]
[1]; comparison value for the C-11 labeled analog
  Brain uptake: 1%
[1]; rats, biodistribution as a function of time
  Initial brain uptake: about 1.1%

## O=C1CC2(CCNCC2)C(=O)N1CC[18F] [[^18F]fluoro-RS 86, [F-18]-N-2-fluoroethyl-2,8-diazaspiro[4,5]decane-1,3-dione]
[2]; 5 min
  Brain uptake: 0.27
[2]; 30 min
  Brain uptake: 0.54
[2]; 60 min
  Brain uptake: 0.48
[2]; at 30 min
  Blood uptake: 0.3%
  Liver uptake: 0.64%
  Stomach uptake: 0.90%
  Uptake in the kidneys (greatest uptake): 2.5%
[2]; bone at 30 min
  Defluorination (uptake in bone): 0.42%
[2]; restated in comparison with [11C]RS-86
  Brain uptake: 0.54%

## CNc1ccc(C=Cc2nc3ccc(OCCF)cc3o2)cc1 [BF-168, 6-(2-fluoroethoxy)-2-[2-(4-methylaminophenyl)ethenyl]-benzoxazole]
[3]; at 2 min after injection
  Initial brain uptake: 3.9 % injected dose/gm
[3]; clearance from brain
  Clearance t1/2: 24.7 min
Brain amyloid deposits
  Labeling in autoradiograms of brain sections: selective labeling of brain amyloid deposits with little non-specific binding
